ChEMBL document CHEMBL1201862, “PubChem BioAssay data set” (2004)
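All cell lines were grown in 96-well plates and treated with compound for 48 hours. GI50 marks 50% less growth.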 Active and inactive are the calls of the source. No stated cut-off is given here; in the data, active = GI50 up to about 1.1 µM and inactive = higher.

Tests used:
Test in all cases: NCI anticancer screen, dose series, 48 h
786-0 = system: 786-0
BT-549 = system: BT-549
CCRF-CEM = system: CCRF-CEM
DU-145 = system: DU-145
HCC 2998 = system: HCC 2998
HT-29 = system: HT-29
Hs-578T = system: Hs-578T
IGROV-1 = system: IGROV-1
MCF7 = system: MCF7
MDA-N = system: MDA-N
Malme-3M = system: Malme-3M
OVCAR-3 = system: OVCAR-3
OVCAR-5 = system: OVCAR-5
SF-295 = system: SF-295
SF-539 = system: SF-539
SK-MEL-2 = system: SK-MEL-2
SK-MEL-5 = system: SK-MEL-5
U-251 = system: U-251
UACC-257 = system: UACC-257
MDA-MB-435 = system: MDA-MB-435

Measured: GI50

O=S(=O)(c1ccccc1)c1ccc(/N=N/O)nc1
inactive: 786-0 > 100 µM | BT-549 > 100 µM | CCRF-CEM 59.4 µM | DU-145 > 100 µM | HCC 2998 > 100 µM | HT-29 > 100 µM | Hs-578T > 100 µM | IGROV-1 > 100 µM | MCF7 76 µM | MDA-N > 100 µM | Malme-3M > 100 µM | OVCAR-3 > 100 µM | OVCAR-5 > 100 µM | SF-295 > 100 µM | SF-539 > 100 µM | SK-MEL-2 > 100 µM | SK-MEL-5 > 10 µM | U-251 > 100 µM | UACC-257 > 100 µM

CC(C)=CCC/C(C)=C/CCC1(C)C2COC(=O)C21 (centres undefined)
inactive: 786-0 > 100 µM | BT-549 49.8 µM | CCRF-CEM 26.9 µM | DU-145 60.5 µM | HCC 2998 > 100 µM | HT-29 70.8 µM | IGROV-1 > 100 µM | MCF7 34.8 µM | MDA-MB-435 65.5 µM | MDA-N 54.7 µM | Malme-3M > 100 µM | OVCAR-3 37 µM | OVCAR-5 > 100 µM | SF-295 77.4 µM | SK-MEL-2 70.5 µM | SK-MEL-5 20.7 µM | U-251 66.2 µM | UACC-257 > 100 µM

COc1ccccc1-c1nc(-c2ccccc2O)n[nH]1
inactive: 786-0 > 100 µM | BT-549 > 100 µM | CCRF-CEM > 100 µM | DU-145 > 100 µM | HCC 2998 > 100 µM | HT-29 > 100 µM | Hs-578T > 100 µM | MCF7 > 100 µM | MDA-MB-435 > 100 µM | MDA-N > 100 µM | OVCAR-3 > 100 µM | OVCAR-5 > 100 µM | SF-295 > 100 µM | SF-539 > 100 µM | SK-MEL-2 > 100 µM | SK-MEL-5 > 100 µM | U-251 > 100 µM | UACC-257 > 100 µM

Oc1ccc(Cc2nccc3cc(O)c(O)cc23)cc1O
inactive: 786-0 32.1 µM | BT-549 54.3 µM | CCRF-CEM 17.9 µM | DU-145 66.5 µM | HT-29 53.5 µM | Hs-578T > 100 µM | IGROV-1 33 µM | MCF7 21.5 µM | MDA-MB-435 51.3 µM | MDA-N 58.2 µM | Malme-3M > 100 µM | OVCAR-3 90.8 µM | OVCAR-5 48.9 µM | SF-295 37.2 µM | SF-539 40.4 µM | SK-MEL-2 49.7 µM | SK-MEL-5 28.8 µM | U-251 37.9 µM | UACC-257 20.8 µM

CC1CCOc2ccc(cc2)/C=N\c2ccc(cc2)-c2ccc(cc2)/N=C\c2ccc(cc2)OCC1
inactive: 786-0 > 100 µM | BT-549 > 100 µM | CCRF-CEM > 100 µM | DU-145 > 100 µM | HCC 2998 > 100 µM | HT-29 > 100 µM | Hs-578T > 100 µM | IGROV-1 > 100 µM | MCF7 > 100 µM | MDA-MB-435 > 100 µM | MDA-N > 100 µM | OVCAR-3 > 100 µM | OVCAR-5 > 100 µM | SF-295 > 100 µM | SF-539 > 100 µM | SK-MEL-2 > 100 µM | SK-MEL-5 > 100 µM | U-251 > 100 µM | UACC-257 > 100 µM

CC(=O)C1C(=O)C(=O)N(c2cccc(C)c2C)C1=O (centres undefined)
inactive: 786-0 > 100 µM | BT-549 > 100 µM | DU-145 > 100 µM | HT-29 > 100 µM | IGROV-1 > 100 µM | MCF7 > 100 µM | MDA-N > 100 µM | OVCAR-3 > 100 µM | OVCAR-5 > 100 µM | SF-295 > 100 µM | SF-539 > 100 µM | SK-MEL-2 > 100 µM | SK-MEL-5 > 100 µM | UACC-257 > 100 µM

O=S(=O)(O)n1ccnc1
inactive: 786-0 > 100 µM | BT-549 > 100 µM | DU-145 > 100 µM | HT-29 > 100 µM | Hs-578T > 100 µM | IGROV-1 > 100 µM | MCF7 > 100 µM | MDA-MB-435 > 100 µM | MDA-N > 100 µM | Malme-3M > 100 µM | OVCAR-3 > 100 µM | OVCAR-5 > 100 µM | SF-295 > 100 µM | SF-539 > 100 µM | SK-MEL-2 77.3 µM | SK-MEL-5 > 100 µM | U-251 > 100 µM | UACC-257 > 100 µM

CN1C(=O)[C@@H]2N(CSC2(C)C)C1=S
inactive: 786-0 > 100 µM | BT-549 > 100 µM | DU-145 > 100 µM | HCC 2998 > 100 µM | HT-29 > 100 µM | IGROV-1 > 100 µM | MCF7 > 100 µM | MDA-MB-435 > 100 µM | MDA-N > 100 µM | OVCAR-3 > 100 µM | OVCAR-5 > 100 µM | SF-295 > 100 µM | SF-539 > 100 µM | SK-MEL-2 > 100 µM | SK-MEL-5 4.47 µM | U-251 > 100 µM | UACC-257 > 100 µM

CCN(CC)CCNC(=O)c1nn(-c2ccc(Cl)cc2)c2c1CCc1cc(OC)ccc1-2
inactive: 786-0 3.52 µM | BT-549 17.4 µM | CCRF-CEM 5.3 µM | DU-145 15.3 µM | HCC 2998 2.34 µM | HT-29 2.64 µM | Hs-578T 3.26 µM | IGROV-1 12.8 µM | MDA-MB-435 9.98 µM | MDA-N 3.51 µM | Malme-3M 1.6 µM | OVCAR-3 7.24 µM | OVCAR-5 4.75 µM | SF-295 3.74 µM | SF-539 4.21 µM | SK-MEL-2 1.68 µM | SK-MEL-5 1.74 µM | U-251 5.43 µM | UACC-257 1.82 µM

COc1cccc(/C=N/n2c(C)n[nH]c2=O)c1
inactive: 786-0 > 100 µM | BT-549 92.9 µM | CCRF-CEM > 100 µM | HCC 2998 > 100 µM | HT-29 > 100 µM | Hs-578T 16.8 µM | MCF7 > 100 µM | MDA-MB-435 > 100 µM | MDA-N > 100 µM | Malme-3M > 100 µM | OVCAR-3 25.9 µM | OVCAR-5 > 100 µM | SF-295 > 100 µM | SF-539 > 100 µM | SK-MEL-2 > 100 µM | U-251 > 100 µM | UACC-257 > 100 µM

COC(=O)CCC(C)[C@H]1CCC2C3C(C[C@H](OC(C)=O)[C@@]21C)[C@@]1(C)CCC2(C[C@H]1C[C@H]3OC(C)=O)OOC1(CCCCCCC1)OO2 (some centres undefined)
inactive: 786-0 6 µM | BT-549 9.14 µM | CCRF-CEM 4.97 µM | DU-145 6.58 µM | HT-29 9.08 µM | Hs-578T 4.05 µM | IGROV-1 6.37 µM | MCF7 6.64 µM | MDA-MB-435 18.4 µM | MDA-N > 100 µM | Malme-3M 9.89 µM | OVCAR-3 2.73 µM | OVCAR-5 > 100 µM | SF-295 6.38 µM | SF-539 18.6 µM | SK-MEL-2 > 100 µM | SK-MEL-5 6.5 µM | U-251 5.86 µM | UACC-257 5.35 µM

Cc1c(C(=O)O)c2cc3ccccc3cc2c(=O)n1C
inactive: 786-0 > 10 µM | BT-549 > 10 µM | HCC 2998 > 10 µM | HT-29 > 10 µM | Hs-578T > 10 µM | IGROV-1 > 10 µM | MCF7 > 10 µM | MDA-MB-435 > 10 µM | MDA-N > 10 µM | Malme-3M > 10 µM | OVCAR-3 > 10 µM | OVCAR-5 > 10 µM | SF-295 > 10 µM | SF-539 > 10 µM | SK-MEL-2 > 10 µM | U-251 > 10 µM | UACC-257 > 10 µM

O=[N+]([O-])c1ccc2c(c1)Cc1cc(/N=C/c3ccc4c(c3)OCO4)ccc1-2
inactive: 786-0 > 100 µM | BT-549 > 100 µM | CCRF-CEM 61.9 µM | DU-145 > 100 µM | HT-29 > 100 µM | Hs-578T 80 µM | IGROV-1 > 100 µM | MCF7 > 100 µM | MDA-MB-435 > 100 µM | MDA-N > 100 µM | Malme-3M > 100 µM | OVCAR-3 > 100 µM | OVCAR-5 > 100 µM | SF-295 > 100 µM | SF-539 > 100 µM | SK-MEL-2 > 100 µM | SK-MEL-5 > 100 µM | U-251 > 100 µM | UACC-257 > 100 µM

CCOC(=O)c1nc2ccc(C(F)(F)F)cc2nc1NCc1cc(OC)c(OC)c(OC)c1
inactive: 786-0 41.6 µM | BT-549 > 100 µM | DU-145 66.5 µM | HCC 2998 57.9 µM | HT-29 59.6 µM | Hs-578T 32.3 µM | IGROV-1 > 100 µM | MCF7 66.5 µM | MDA-MB-435 35.6 µM | MDA-N 28.4 µM | OVCAR-3 55.5 µM | OVCAR-5 > 100 µM | SF-295 > 100 µM | SF-539 38.6 µM | SK-MEL-2 40.8 µM | SK-MEL-5 27.7 µM | UACC-257 > 100 µM

CC1C2(C)OC(=N)C(C#N)(C(c3ccco3)O2)C1(C#N)C#N (centres undefined)
inactive: 786-0 20.8 µM | BT-549 35.2 µM | CCRF-CEM 23.6 µM | DU-145 31 µM | HCC 2998 26.9 µM | HT-29 32.8 µM | Hs-578T 24.9 µM | IGROV-1 58.9 µM | MCF7 22.4 µM | MDA-N 19.8 µM | Malme-3M 31.2 µM | OVCAR-3 21.3 µM | OVCAR-5 29.7 µM | SF-295 > 100 µM | SF-539 19.5 µM | SK-MEL-2 29.4 µM | SK-MEL-5 14.9 µM | U-251 24.4 µM | UACC-257 20.5 µM
